Test results published in ChEMBL document CHEMBL4706656, “Ifenprodil Stereoisomers: Synthesis, Absolute Configuration, and Correlation with Biological Activity” (J Med Chem, 2021).

Assays:
[1] = target: 5-hydroxytryptamine receptor 2B (Homo sapiens, UniProt P41595); test: Binding affinity to 5-HT2B receptor (unknown origin) incubated for 1 hr by radioligand binding assay
[2] = target: T1, 5-hydroxytryptamine receptor 1A (Homo sapiens, UniProt P08908); test: Displacement of [3H]-8-OH-DPAT from human 5-HT1A receptor expressed in HEK293 cells incubated for 1 hr by radioligand binding assay; type: cell-based
T1 sequence (P08908 whole entry): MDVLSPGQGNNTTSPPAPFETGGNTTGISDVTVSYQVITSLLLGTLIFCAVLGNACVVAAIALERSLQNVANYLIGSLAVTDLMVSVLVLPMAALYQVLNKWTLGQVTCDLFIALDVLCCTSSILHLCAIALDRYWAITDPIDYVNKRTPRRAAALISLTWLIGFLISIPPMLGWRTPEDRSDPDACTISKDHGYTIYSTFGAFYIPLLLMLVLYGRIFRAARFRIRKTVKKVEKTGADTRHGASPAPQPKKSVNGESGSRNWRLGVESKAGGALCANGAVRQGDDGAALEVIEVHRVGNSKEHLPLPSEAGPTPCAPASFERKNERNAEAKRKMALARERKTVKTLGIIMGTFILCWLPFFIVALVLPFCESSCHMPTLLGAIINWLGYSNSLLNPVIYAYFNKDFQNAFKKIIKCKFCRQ

[3] = target: T2, 5-hydroxytryptamine receptor 2C (Homo sapiens, UniProt P28335); test: Binding affinity to 5-HT2C receptor (unknown origin) incubated for 1 hr by radioligand binding assay
T2 sequence (P28335 whole entry): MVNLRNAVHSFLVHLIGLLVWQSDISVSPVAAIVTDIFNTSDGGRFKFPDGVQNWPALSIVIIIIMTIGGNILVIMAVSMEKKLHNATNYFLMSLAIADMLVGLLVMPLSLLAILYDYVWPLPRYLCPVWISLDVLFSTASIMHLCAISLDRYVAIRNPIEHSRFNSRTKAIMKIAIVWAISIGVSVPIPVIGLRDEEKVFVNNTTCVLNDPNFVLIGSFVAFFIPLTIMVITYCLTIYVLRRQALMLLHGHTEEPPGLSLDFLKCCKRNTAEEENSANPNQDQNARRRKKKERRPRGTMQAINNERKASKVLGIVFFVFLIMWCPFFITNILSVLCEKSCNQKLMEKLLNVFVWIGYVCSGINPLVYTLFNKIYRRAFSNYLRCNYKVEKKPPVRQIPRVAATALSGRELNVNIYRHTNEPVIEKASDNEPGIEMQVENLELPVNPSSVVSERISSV

[4] = target: T3, Alpha-2A adrenergic receptor (Homo sapiens, UniProt P08913); test: Displacement of [3H]RX821002 from alpha-2A adrenergic receptor (unknown origin)
T3 sequence (P08913 whole entry): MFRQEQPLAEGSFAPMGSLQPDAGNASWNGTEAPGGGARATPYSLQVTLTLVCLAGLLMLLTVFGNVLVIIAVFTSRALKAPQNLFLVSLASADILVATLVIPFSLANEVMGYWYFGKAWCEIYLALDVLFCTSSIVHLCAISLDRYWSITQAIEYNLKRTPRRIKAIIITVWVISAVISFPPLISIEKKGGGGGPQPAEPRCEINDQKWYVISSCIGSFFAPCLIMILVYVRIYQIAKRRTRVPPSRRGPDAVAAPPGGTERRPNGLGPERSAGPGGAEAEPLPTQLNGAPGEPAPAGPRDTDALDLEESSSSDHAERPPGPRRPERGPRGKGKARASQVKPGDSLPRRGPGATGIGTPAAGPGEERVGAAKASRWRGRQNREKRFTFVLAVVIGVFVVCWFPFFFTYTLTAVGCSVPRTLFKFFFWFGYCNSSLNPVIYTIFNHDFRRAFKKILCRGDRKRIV

[5] = target: 5-hydroxytryptamine receptor 6 (Homo sapiens, UniProt P50406); test: Displacement of [3H]LSD from human 5-HT6 receptor expressed in HEK293 cells incubated for 1 hr by radioligand binding assay; type: cell-based
[6] = target: 5-hydroxytryptamine receptor 7 (Homo sapiens, UniProt P34969); test: Displacement of [3H]-5-CT from human 5-HT7B receptor expressed in HEK293 cells incubated for 1 hr by radioligand binding assay; type: cell-based
[7] = target: 5-hydroxytryptamine receptor 2A (Homo sapiens, UniProt P28223); test: Displacement of [3H]ketanserin from human 5-HT2A receptor expressed in CHO-K1 cells incubated for 1 hr by radioligand binding assay; type: cell-based
[8] = target: T4, Alpha-1A adrenergic receptor (Homo sapiens, UniProt P35348); test: Displacement of [3H]prazosin from alpha-1A adrenergic receptor (unknown origin)
T4 sequence (P35348 whole entry): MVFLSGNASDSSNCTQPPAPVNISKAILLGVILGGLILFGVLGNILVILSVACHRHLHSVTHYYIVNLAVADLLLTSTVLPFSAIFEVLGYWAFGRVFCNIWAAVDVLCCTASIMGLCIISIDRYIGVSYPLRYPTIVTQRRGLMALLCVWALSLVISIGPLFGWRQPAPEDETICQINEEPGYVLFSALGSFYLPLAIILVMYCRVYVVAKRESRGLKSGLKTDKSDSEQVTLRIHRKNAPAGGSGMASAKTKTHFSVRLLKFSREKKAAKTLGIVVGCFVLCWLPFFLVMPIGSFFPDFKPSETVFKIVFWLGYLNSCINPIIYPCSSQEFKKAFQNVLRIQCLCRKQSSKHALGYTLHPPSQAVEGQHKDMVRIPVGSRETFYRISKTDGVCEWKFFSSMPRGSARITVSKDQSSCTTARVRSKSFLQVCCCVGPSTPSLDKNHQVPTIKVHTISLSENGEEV

Sequence of 5-hydroxytryptamine receptor 2A (P28223 whole entry): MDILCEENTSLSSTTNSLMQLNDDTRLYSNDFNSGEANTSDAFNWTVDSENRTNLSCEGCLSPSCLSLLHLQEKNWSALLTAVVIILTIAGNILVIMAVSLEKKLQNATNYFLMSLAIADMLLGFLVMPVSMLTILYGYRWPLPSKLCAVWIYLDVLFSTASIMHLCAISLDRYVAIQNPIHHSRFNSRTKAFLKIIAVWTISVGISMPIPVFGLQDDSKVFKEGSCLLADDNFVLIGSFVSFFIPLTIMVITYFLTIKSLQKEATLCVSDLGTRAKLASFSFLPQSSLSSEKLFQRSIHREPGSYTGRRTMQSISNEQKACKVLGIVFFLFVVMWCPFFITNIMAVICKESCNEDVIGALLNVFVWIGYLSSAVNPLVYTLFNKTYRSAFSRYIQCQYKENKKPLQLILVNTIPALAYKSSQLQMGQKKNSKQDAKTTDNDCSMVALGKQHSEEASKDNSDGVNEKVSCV
Sequence of 5-hydroxytryptamine receptor 7 (P34969 whole entry): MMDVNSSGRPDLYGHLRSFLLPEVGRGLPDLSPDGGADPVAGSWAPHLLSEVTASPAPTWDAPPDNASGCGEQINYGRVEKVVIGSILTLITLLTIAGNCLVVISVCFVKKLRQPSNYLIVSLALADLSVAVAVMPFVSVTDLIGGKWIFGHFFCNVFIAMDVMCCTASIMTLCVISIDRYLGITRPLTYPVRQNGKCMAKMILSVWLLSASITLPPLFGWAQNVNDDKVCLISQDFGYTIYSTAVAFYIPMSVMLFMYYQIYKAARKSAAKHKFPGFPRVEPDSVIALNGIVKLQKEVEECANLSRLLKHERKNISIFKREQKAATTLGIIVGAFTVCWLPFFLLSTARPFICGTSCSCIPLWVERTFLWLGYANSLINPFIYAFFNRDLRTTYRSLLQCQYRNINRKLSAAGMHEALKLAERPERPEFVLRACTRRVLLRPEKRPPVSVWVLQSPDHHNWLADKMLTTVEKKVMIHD
Sequence of 5-hydroxytryptamine receptor 6 (P50406 whole entry): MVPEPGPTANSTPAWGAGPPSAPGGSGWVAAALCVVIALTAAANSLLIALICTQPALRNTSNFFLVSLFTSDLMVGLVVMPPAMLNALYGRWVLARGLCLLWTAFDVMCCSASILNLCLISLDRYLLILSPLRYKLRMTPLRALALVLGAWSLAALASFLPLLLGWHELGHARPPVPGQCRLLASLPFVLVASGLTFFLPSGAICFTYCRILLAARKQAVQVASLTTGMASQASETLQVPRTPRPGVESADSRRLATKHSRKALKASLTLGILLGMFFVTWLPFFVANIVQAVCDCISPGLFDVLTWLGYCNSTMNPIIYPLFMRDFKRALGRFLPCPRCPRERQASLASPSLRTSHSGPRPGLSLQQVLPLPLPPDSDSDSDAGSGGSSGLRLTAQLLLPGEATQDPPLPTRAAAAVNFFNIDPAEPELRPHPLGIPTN
Sequence of 5-hydroxytryptamine receptor 2B (P41595 whole entry): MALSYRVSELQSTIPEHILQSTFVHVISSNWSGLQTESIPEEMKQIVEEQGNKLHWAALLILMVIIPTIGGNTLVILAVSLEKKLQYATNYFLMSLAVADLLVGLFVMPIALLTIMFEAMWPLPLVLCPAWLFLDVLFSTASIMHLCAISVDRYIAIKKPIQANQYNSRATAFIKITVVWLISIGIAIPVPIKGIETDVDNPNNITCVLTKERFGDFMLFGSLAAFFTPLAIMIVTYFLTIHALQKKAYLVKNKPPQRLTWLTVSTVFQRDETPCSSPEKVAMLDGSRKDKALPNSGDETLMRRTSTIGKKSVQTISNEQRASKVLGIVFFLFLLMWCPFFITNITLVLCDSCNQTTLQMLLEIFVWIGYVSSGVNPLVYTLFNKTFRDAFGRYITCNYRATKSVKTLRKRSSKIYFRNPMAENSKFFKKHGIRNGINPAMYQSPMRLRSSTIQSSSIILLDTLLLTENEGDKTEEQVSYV

Compound	Ki [1] [nM]	Ki [2] [nM]	Ki [3] [nM]	Ki [4] [nM]	Ki [5] [nM]	Ki [6] [nM]	Ki [7] [nM]	Ki [8] [nM]
C[C@H]([C@H](O)c1ccc(O)cc1)N1CCC(Cc2ccccc2)CC1	708	> 1000	> 10000	5500	> 10000	> 10000	338	370
C[C@@H]([C@H](O)c1ccc(O)cc1)N1CCC(Cc2ccccc2)CC1 [(R,S)-IFENPRODIL]	95	> 1000	748	1600	> 1000	513	421	140
C[C@@H]([C@@H](O)c1ccc(O)cc1)N1CCC(Cc2ccccc2)CC1 [(S)-IFENPRODIL]	> 1000	> 1000	> 10000	6100	> 10000	> 10000	369	530
C[C@H]([C@@H](O)c1ccc(O)cc1)N1CCC(Cc2ccccc2)CC1 [(S,R)-IFENPRODIL]	66	46	> 10000	2300	> 1000	> 10000	510	27
